In publication PMC5152921, “Evolutionary and Functional Diversification of the Vitamin D Receptor-Lithocholic Acid Partnership” (PLoS ONE, 2016):

Molecular target: T1, Medaka VDRβ (Oryzias latipes, UniProt B2CCA1)
T1 sequence (B2CCA1 1-425): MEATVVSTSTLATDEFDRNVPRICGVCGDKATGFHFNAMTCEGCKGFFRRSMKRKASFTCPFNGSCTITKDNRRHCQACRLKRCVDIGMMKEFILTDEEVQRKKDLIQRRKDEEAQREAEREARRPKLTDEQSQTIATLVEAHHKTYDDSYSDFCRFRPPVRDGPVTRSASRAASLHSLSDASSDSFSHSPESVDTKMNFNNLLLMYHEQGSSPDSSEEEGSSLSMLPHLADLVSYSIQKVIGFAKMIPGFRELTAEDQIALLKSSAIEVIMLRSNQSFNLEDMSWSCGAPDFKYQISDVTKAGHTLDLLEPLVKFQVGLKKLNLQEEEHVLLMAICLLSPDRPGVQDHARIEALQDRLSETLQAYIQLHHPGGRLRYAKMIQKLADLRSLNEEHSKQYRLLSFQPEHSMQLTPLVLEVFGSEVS
T1 sequence (P19793 1-462 partner): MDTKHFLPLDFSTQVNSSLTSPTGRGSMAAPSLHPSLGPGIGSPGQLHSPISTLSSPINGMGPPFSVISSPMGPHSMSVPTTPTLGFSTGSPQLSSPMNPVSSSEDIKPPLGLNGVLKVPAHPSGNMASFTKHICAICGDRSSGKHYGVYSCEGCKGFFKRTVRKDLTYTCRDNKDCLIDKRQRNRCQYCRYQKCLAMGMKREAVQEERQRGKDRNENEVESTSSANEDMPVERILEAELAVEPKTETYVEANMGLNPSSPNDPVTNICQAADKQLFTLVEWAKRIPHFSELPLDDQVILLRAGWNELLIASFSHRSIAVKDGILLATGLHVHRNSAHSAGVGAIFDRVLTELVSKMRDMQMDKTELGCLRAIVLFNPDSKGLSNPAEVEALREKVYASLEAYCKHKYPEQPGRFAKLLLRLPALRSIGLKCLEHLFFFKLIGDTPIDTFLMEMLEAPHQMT
Assay: Competitive ligand binding assay ([3H]-1,25D3 displacement)
Details: lysate with VDR and human RXRWT; 4 nM [3H]-1,25D3; 18 hours at 4°C; Cheng-Prusoff; mean ± SEM
Procedure: Recombinant VDR and human RXRWT lysates were prepared from transfected COS7 cells (American Type Culture Collection #CRL-1651) as described in detail previously. Lysates were diluted 10-fold in ice-cold assay buffer (10 mM Tris HCl, 150 mM KCl, 1 mM EDTA, 0.3 mM ZnCl2, 5 mM DTT, and 1x protease inhibitor cocktail (100 μM AEBSF, 80 nM aprotinin, 5 μM bestatin, 1.5 μM E-64 (for cysteine proteases), 2 μM leupeptin, 1 μM pepstatin A), pH 7.5). […] Reactions were shaken to mix and incubated for 18 hours at 4°C. Bound and free ligand were separated with the addition of 80 μL of ice-cold separation buffer (2.5% (w/v) activated charcoal, 0.5% (w/v) dextran, 100 mM Na2HPO4, 39 mM NaH2PO4, 150 mM NaCl, 15 mM NaN3, 10% gelatin, pH 7.0), and incubated at 4°C for 15 minutes with shaking every 5 minutes. Reactions were centrifuged at 5,000 x g for 5 minutes at 4°C, and 200 μL of the supernatant containing the VDR-bound ligands was removed for scintillation counting.
Total binding was determined using lysate from cells transfected with VDR, and nonspecific binding was determined using lysate from cells transfected with the empty pSG5 vector. Specific binding was determined by subtracting non-specific binding counts from the total binding counts.

With C[C@H](CCC(=O)O)[C@H]1CC[C@H]2[C@@H]3CC[C@@H]4C[C@H](O)CC[C@]4(C)[C@H]3CC[C@]12C [LCA, 5β-cholanic acid-3α-ol] the Ki was 7.6 ± 1.1 µM.
